Series [1] deals with IRAK4 (Homo sapiens (Human), UniProt Q9NWZ3). Nature of the series: IRAK4 Inhibition Assay. Format: biochemical. To be noted: ATP 500 μM; IRAK4 0.6 nM. A digest of the protocol:
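Mobility-shift kinase assay: 0.6 nM IRAK4, 500 μM ATP, 1.5 μM fluorescent peptide, 60 min, room temperature. Percent inhibition was normalised between enzyme-free and DMSO-only wells.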

Series [2] is described as follows: Caco-2 Permeability Assay. Particulars: human, Caco-2, test compound 3 μM. Format: in vitro ADME. How it is done: Caco-2 Permeability Assay
Thirteen to 27 days prior to assay, Caco-2 cells were seeded onto collagen-coated polycarbonate filter membranes in 24-well transwell plates at a density of 1.45×10^5 cells/cm^2, approximately 4.8×10^4 cells per well. The cells were grown in a culture medium consisting of DMEM supplemented with 10% fetal bovine serum, 10 mM HEPES, 1% nonessential amino acids, 2 mM L-glutamine, 100 U/mL penicillin-G, and 100 μg/mL streptomycin. The culture medium was replaced every 3 days and the cells were maintained at 37° C. in a 95% relative humidity and 5% CO2 atmosphere. The cells were evaluated for tight junction formation just prior to assay. The test compound was solubilized to 10 mM in 100% DMSO and diluted to 3 μM in assay buffer. Permeability studies were initiated by adding 200 μL assay buffer plus/minus compound to the apical transwell compartment and 600 μL assay buffer plus/minus compound to the basolateral compartment of the 24-well transwell low-binding cluster plate. For apical-to-basolateral (A to B) permeability (absorptive direction), buffer containing compound was placed in the apical compartment (donor wells), while buffer alone was placed in the corresponding basolateral compartments (receiver wells). For basolateral-to-apical (B to A) permeability (secretive direction), buffer containing compound was placed in the basolateral compartment (donor wells), while buffer alone was placed in the corresponding apical compartments (receiver wells). Transwells were then incubated for 2 hours at 37° C. in a 95% relative humidity and 5% CO2 atmosphere with gentle agitation. Following incubation, 100 μL was removed from each apical and basolateral compartment and transferred to 96-well low binding plates that had been previously loaded with 100 μL/well of acetonitrile containing 250 nM propranolol, 250 nM diclofenac, and 500 nM tolbutamide as internal standards. The samples were subsequently analyzed by LC-MS/MS to determine concentrations of compound.

Series [3] has as its system Human whole blood stimulated with a TLR2 agonist (lipoteichoic acid), IL-6 levels. Briefly: IRAK4 Whole Blood Assay. The format is cell-based. Particulars: Homo sapiens, lipoteichoic acid 10 μg/mL. The essentials: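 IL-6 was quantified by cytometric bead assay in supernatants of human blood (ACD-A) stimulated for 5 h with lipoteichoic acid at 10 μg/mL final. Compound exposure preceded stimulation for 60 min at 37 °C, 5% CO2.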

Structures are written as SMILES. Where only a bound is given, the exact number is not on record here.

Sequence of IRAK4 (Q9NWZ3 whole entry, species assumed): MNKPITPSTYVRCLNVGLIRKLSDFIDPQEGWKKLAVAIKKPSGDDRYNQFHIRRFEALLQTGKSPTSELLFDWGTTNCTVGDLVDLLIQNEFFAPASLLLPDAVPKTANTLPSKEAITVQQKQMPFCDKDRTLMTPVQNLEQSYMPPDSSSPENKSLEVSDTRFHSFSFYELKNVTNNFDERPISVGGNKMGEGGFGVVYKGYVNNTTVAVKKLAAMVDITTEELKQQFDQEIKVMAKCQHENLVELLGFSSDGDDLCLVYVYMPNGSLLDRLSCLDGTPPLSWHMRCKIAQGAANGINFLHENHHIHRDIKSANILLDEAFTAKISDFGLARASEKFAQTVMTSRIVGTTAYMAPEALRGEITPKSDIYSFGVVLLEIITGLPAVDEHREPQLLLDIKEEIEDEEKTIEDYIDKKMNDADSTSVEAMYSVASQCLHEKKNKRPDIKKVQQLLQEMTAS

As to `CC(C)Nc1cc(-n2ncc3cc(C#N)cnc32)ncc1-c1cn(C[C@@H](C)O)nn1` [Example 66, (R)-1-(5-(1-(2-hydroxypropyl)-1H-1,2,3-triazol-4-yl)-4-(isopropylamino)pyridin-2-yl)-1H-pyrazolo[3,4-b]pyridine-5-carbonitrile], in series [1], the half-maximal inhibitory concentration (IC50) worked out at 0.016 µM. In series [2], this compound had an apparent permeability coefficient (Papp) at 2 h, 3 µM of 59 nm/s.

Consider `CCCc1cn(-c2cnc(-n3cnc4cc(C#N)cnc43)cc2NC(C)C)nn1` [Example 278, 3-(4-(isopropylamino)-5-(4-propyl-1H-1,2,3-triazol-1-yl)pyridin-2-yl)-3H-imidazo[4,5-b]pyridine-6-carbonitrile], for which, in series [1], the half-maximal inhibitory concentration (IC50) is 0.015 µM. The same compound had an apparent permeability (Papp) at 2 h, 3 µM in series [2] of 237 nm/s. Taken in the same sequence, the figures for `CC(C)Nc1cc(-n2ncc3cc(C#N)cnc32)ncc1-c1cn([C@@H]2CCCC[C@@]2(C)O)nn1` (relative stereo) [Example 64, 1-(5-(1-((1R,2R)-2-hydroxy-2-methylcyclohexyl)-1H-1,2,3-triazol-4-yl)-4-(isopropylamino)pyridin-2-yl)-1H-pyrazolo[3,4-b]pyridine-5-carbonitrile] were 0.005 µM and 148 nm/s.

`CCCn1cc(-c2cnc(-n3cnc4cc(C#N)cnc43)cc2Nc2cnn(CC)c2)nn1` [Example 59] gave an apparent permeability coefficient (Papp) at 2 h, 3 µM in series [2] of 200 nm/s. For `CC(C)Nc1cc(-n2ncc3cc(C#N)cnc32)ncc1-c1cn([C@H]2CCNC[C@H]2O)nn1` [Example 177, 1-(5-(1-((3R,4S)-3-hydroxypiperidin-4-yl)-1H-1,2,3-triazol-4-yl)-4-(isopropylamino)pyridin-2-yl)-1H-pyrazolo[3,4-b]pyridine-5-carbonitrile], in series [1], the IC50 turned out to be 0.013 µM. For the same compound, the apparent permeability coefficient (Papp) at 2 h, 3 µM in series [2] was < 15 nm/s. On to `CCCn1cc(-c2cnc(-n3cnc4cc(C#N)cnc43)cc2NC(C)C)nn1` [Example 40, 3-(4-(isopropylamino)-5-(1-propyl-1H-1,2,3-triazol-4-yl)pyridin-2-yl)-3H-imidazo[4,5-b]pyridine-6-carbonitrile], for which, in series [1], the IC50 turned out to be 0.003 µM. The same compound gave an apparent permeability coefficient (Papp) at 2 h, 3 µM in series [2] of 278 nm/s. For `CC(C)Nc1cc(-n2ncc3cc(C#N)cnc32)ncc1-c1cn(CCCc2ccccc2)nn1` [Example 130, 1-(4-(isopropylamino)-5-(1-(3-phenylpropyl)-1H-1,2,3-triazol-4-yl)pyridin-2-yl)-1H-pyrazolo[3,4-b]pyridine-5-carbonitrile], in series [3], it took 10.7 µM to reach a half-maximal effect (EC50). Besides, in series [1], the half-inhibitory concentration (IC50) stood at 0.005 µM. Taken in the same sequence, the figures for `CC(C)Nc1cc(-n2ncc3cc(C#N)cnc32)ncc1-c1cn(CCCN)nn1` [Example 171, 1-(5-(1-(3-aminopropyl)-1H-1,2,3-triazol-4-yl)-4-(isopropylamino)pyridin-2-yl)-1H-pyrazolo[3,4-b]pyridine-5-carbonitrile] were 1.16 µM and 0.006 µM. Taken in the same sequence, the figures for `CC(C)(O)CCC1CC(c2cnc(-n3ncc4cc(C#N)cnc43)cc2NCC(F)F)=NO1` (stereo not drawn) [Example 442, 1-(4-((2,2-difluoroethyl)amino)-5-(5-(3-hydroxy-3-methylbutyl)-4,5-dihydroisoxazol-3-yl)pyridin-2-yl)-1H-pyrazolo[3,4-b]pyridine-5-carbonitrile] were 0.41 µM and 0.004 µM. On the same counts, the results for `CC(C)Nc1cc(-n2ncc3cc(C#N)cnc32)ncc1-c1cc([C@@H]2CCCCN2S(C)(=O)=O)on1` [Example 432, (S)-1-(4-(isopropylamino)-5-(5-(1-(methylsulfonyl)piperidin-2-yl)isoxazol-3-yl)pyridin-2-yl)-1H-pyrazolo[3,4-b]pyridine-5-carbonitrile] are 0.37 µM and 0.001 µM.

Consider `CCCc1cn(-c2cnc(-n3ncc4cc(C#N)cnc43)cc2NC2CCOCC2)nn1` [Example 283, 1-(5-(4-propyl-1H-1,2,3-triazol-1-yl)-4-((tetrahydro-2H-pyran-4-yl)amino)pyridin-2-yl)-1H-pyrazolo[3,4-b]pyridine-5-carbonitrile], for which a half-maximal effect in series [3] (EC50) was put at 1.28 µM. In addition, the IC50 in series [1] came out at 0.007 µM. On the same counts, the results for `CC(C)Nc1cc(-n2ncc3cc(C#N)cnc32)ncc1-n1cc(C2CCC(NC(=O)OC(C)(C)C)CC2)nn1` (stereo not drawn) [Example 342, tert-butyl ((1s,4s)-4-(1-(6-(5-cyano-1H-pyrazolo [3,4-b]pyridin-1-yl)-4-(isopropylamino)pyridin-3-yl)-1H-1,2,3-triazol-4-yl)cyclohexyl) carbamate] are 1.12 µM and 0.002 µM. In the case of `CCCn1cc(-c2cnc(-n3ncc4cc(C#N)cnc43)cc2Nc2cnn(CC(F)F)c2)cn1` [Example 256, 1-(4-((1-(2,2-difluoroethyl)-1H-pyrazol-4-yl)amino)-5-(1-propyl-1H-pyrazol-4-yl)pyridin-2-yl)-1H-pyrazolo[3,4-b]pyridine-5-carbonitrile], the concentration for a half-maximal effect (EC50) in series [3] came out at 0.6 µM. Moreover, in series [1], the half-inhibitory concentration (IC50) was 0.014 µM. Taken in the same sequence, the figures for `CC(C)Nc1cc(-n2ncc3cc(C#N)cnc32)ncc1-c1cn([C@@H]2CCN(S(C)(=O)=O)C[C@H]2OS(C)(=O)=O)nn1` (single isomer, unassigned) [Example 202] were 0.95 µM and 0.005 µM. For `CC(C)Nc1cc(-n2ncc3cc(C#N)cnc32)ncc1-n1cc(C2CCCC2)nn1` [Example 266, 1-(5-(4-cyclopentyl-1H-1,2,3-triazol-1-yl)-4-(isopropylamino)pyridin-2-yl)-1H-pyrazolo[3,4-b]pyridine-5-carbonitrile], the concentration for a half-maximal effect (EC50) in series [3] turned out to be 0.52 µM. Besides, the IC50 in series [1] turned out to be 0.014 µM. On the same counts, the results for `CC(C)Nc1cc(-n2ncc3cc(C#N)cnc32)ncc1-c1cn(C2CN(C(=O)CC3CC3)C2)nn1` [Example 139, 1-(5-(1-(1-(2-cyclopropylacetyl)azetidin-3-yl)-1H-1,2,3-triazol-4-yl)-4-(isopropylamino)pyridin-2-yl)-1H-pyrazolo[3,4-b]pyridine-5-carbonitrile] are 1.09 µM and 0.004 µM. On the same counts, the results for `CC(C)Nc1cc(-n2ncc3cc(C#N)cnc32)ncc1-c1cn([C@H]2CC[C@H](NC(=O)OC(C)(C)C)CC2)nn1` [Example 212, tert-butyl ((trans)-4-(4-(6-(5-cyano-1H-pyrazolo[3,4-b]pyridin-1-yl)-4-(isopropylamino)pyridin-3-yl)-1H-1,2,3-triazol-1-yl)cyclohexyl)carbamate] are 1.4 µM and 0.003 µM. With `CC(C)Nc1cc(-n2ncc3cc(C#N)cnc32)ncc1-c1cn(CC2COC2)cn1` [Example 236, 1-(4-(isopropylamino)-5-(1-(oxetan-3-ylmethyl)-1H-imidazol-4-yl)pyridin-2-yl)-1H-pyrazolo[3,4-b]pyridine-5-carbonitrile], in series [3], the EC50 came to 0.99 µM. The half-maximal inhibitory concentration (IC50) in series [1] was found to be 0.011 µM.

On to `CCC(O)Cc1cn(-c2cnc(-n3ncc4cc(C#N)cnc43)cc2NC(C)C)nn1` (stereo not drawn) [Example 303, 1-(5-(4-(2-hydroxybutyl)-1H-1,2,3-triazol-1-yl)-4-(isopropylamino)pyridin-2-yl)-1H-pyrazolo[3,4-b]pyridine-5-carbonitrile], for which the EC50 in series [3] stood at 1.18 µM. The half-maximal inhibitory concentration (IC50) in series [1] came out at 0.016 µM. Taken in the same sequence, the figures for `CC(C)Nc1cc(-n2ncc3cc(C#N)cnc32)ncc1-c1cn(CCCO)nn1` [Example 28, 1-(5-(1-(3-hydroxypropyl)-1H-1,2,3-triazol-4-yl)-4-(isopropylamino)pyridin-2-yl)-1H-pyrazolo [3,4-b]pyridine-5-carbonitrile] were 1.91 µM and 0.006 µM. With `CC(C)Nc1cc(-n2ncc3cc(C#N)cnc32)ncc1-c1cn(CCCN2CCCC2)nn1` [Example 127, 1-(4-(isopropylamino)-5-(1-(3-(pyrrolidin-1-yl)propyl)-1H-1,2,3-triazol-4-yl)pyridin-2-yl)-1H-pyrazolo[3,4-b]pyridine-5-carbonitrile], the concentration giving a half-maximal response (EC50) in series [3] came out at 2.95 µM. In addition, the 50% inhibitory concentration (IC50) in series [1] worked out at 0.01 µM.

In the case of `CC(C)CCc1cn(-c2cnc(-n3ncc4cc(C#N)cnc43)cc2NC(C)C)nn1` [Example 307, 1-(5-(4-isopentyl-1H-1,2,3-triazol-1-yl)-4-(isopropylamino)pyridin-2-yl)-1H-pyrazolo[3,4-b]pyridine-5-carbonitrile], the half-maximal effective concentration (EC50) in series [3] came to 0.58 µM. In series [1], the IC50 was 0.003 µM. In series [3], `COCCn1cc(-c2cnc(-n3ncc4cc(C#N)cnc43)cc2NC(C)C)nn1` [Example 121, 1-(4-(isopropylamino)-5-(1-(2-methoxyethyl)-1H-1,2,3-triazol-4-yl)pyridin-2-yl)-1H-pyrazolo[3,4-b]pyridine-5-carbonitrile] came in with an EC50 of 1.74 µM. Moreover, the IC50 in series [1] came out at 0.006 µM.

Source of the values: US10294229B2, “Heteroaryl substituted aminopyridine compounds” (BRISTOL-MYERS SQUIBB COMPANY, priority 2015, dated 2019).
